The source of these data is the Kinase Knowledgebase extract (Sharma et al. 2016).

Assay [1] deals with MAPK14 (UniProt Q16539). Kind of assay: Inhibition of p38 Kinase Activity.
Assay [2] relates to MAPK14 (C3H mice). As to the kind of experiment: Inhibition of LPS Stimulated TNF Production in C3H Mice. The settings on record: dose or concentration not given here.
Assay [3] deals with MAPK14 (human) (UniProt Q16539). As to the kind of experiment: Inhibition of HFF Cell Proliferation.
The target is the same in assay [4]. Kind of assay: Inhibition of TNF Release from Human Peripheral Blood Mononuclear Cells. The settings on record: pbmc.

MAPK14 (human), sequence (Q16539 whole entry, looked up): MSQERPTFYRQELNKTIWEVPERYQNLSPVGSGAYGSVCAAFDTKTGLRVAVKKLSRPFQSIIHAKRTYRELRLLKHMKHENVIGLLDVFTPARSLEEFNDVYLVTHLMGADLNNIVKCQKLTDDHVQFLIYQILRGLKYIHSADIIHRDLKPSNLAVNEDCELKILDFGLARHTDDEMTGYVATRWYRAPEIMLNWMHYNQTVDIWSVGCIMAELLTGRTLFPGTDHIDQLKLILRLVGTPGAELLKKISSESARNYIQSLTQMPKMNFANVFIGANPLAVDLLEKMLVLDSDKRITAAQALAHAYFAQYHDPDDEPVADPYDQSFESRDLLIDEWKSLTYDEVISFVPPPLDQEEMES
MAPK14, sequence (Q16539 whole entry, looked up): as above

What is called IC50 is the concentration needed to halve the response being measured. The low end stands for higher potency, the high end for lower potency. Regarding `CCCN(CCC)CCNc1nccc(-c2c(-c3ccc(C(F)(F)F)cc3)nn3cc(C(F)(F)F)ccc23)n1`, the IC50 in assay [1] lay in the range of 1000 to 10000 nM.

In assay [1], `CCCN1CCN(CCNc2nccc(-c3c(-c4ccc(F)c(Cl)c4)nn4cc(C(F)(F)F)ccc34)n2)CC1` came in with an IC50 of 10 to 100 nM.

Take `FC(F)(F)c1ccc2c(-c3ccnc(NCCCN4CCOCC4)n3)c(-c3cccc(Cl)c3)nn2c1`: the IC50 in assay [1] was 10 to 100 nM.

The compound `Fc1ccc(-c2nn3cc(C(F)(F)F)ccc3c2-c2ccnc(NCCCN3CCOCC3)n2)cc1Cl` came in with an IC50 in assay [1] of 100 to 1000 nM.

For `FC(F)(F)c1ccc(-c2nn3cc(C(F)(F)F)ccc3c2-c2ccnc(NCCN3CCCCC3)n2)cc1`, the IC50 in assay [1] fell in the range of 1000 to 10000 nM.

`Nc1nccc(-c2c(-c3ccc(F)cc3)nn3cc(C(F)(F)F)ccc23)n1`: in assay [1], the IC50 is < 500 nM.

Compound `CCN(CC)CCCCNc1nccc(-c2c(-c3cccc(Cl)c3)nn3cc(C(F)(F)F)ccc23)n1` came in with an IC50 in assay [1] of 10 to 100 nM.

For `CN1CCN(CCCNc2nccc(-c3c(-c4ccc(F)cc4)nn4cc(C(F)(F)F)ccc34)n2)CC1`, the IC50 in assay [1] is 10 to 100 nM.

Regarding `CN(C)CCCNc1nccc(-c2c(-c3cccc(Cl)c3)nn3cc(C(F)(F)F)ccc23)n1`, in assay [1], the IC50 was in the range of 10 to 100 nM.

For `FC(F)(F)c1ccc(-c2nn3cc(C(F)(F)F)ccc3c2-c2ccnc(NCCCN3CCCCC3)n2)cc1`, in assay [1], the IC50 is 1000 to 10000 nM.

On to `CCCN(CCC)CCNc1nccc(-c2c(-c3cccc(Cl)c3)nn3cc(C(F)(F)F)ccc23)n1`, for which the IC50 in assay [1] is 100 to 1000 nM.

As usually defined, the inhibition is the relative decrease from the control value, in per cent. For `N#Cc1ccc2c(-c3ccnc(NC4CC4)n3)c(-c3ccc(F)cc3)nn2c1`, the inhibition in assay [2] came to 52%. Also, in assay [1], the IC50 was < 500 nM.

`CCN(CC)CCCCNc1nccc(-c2c(-c3ccc(F)c(Cl)c3)nn3cc(C(F)(F)F)ccc23)n1`: the IC50 in assay [1] lay in the range of 10 to 100 nM.

Compound `CN1CCN(CCCNc2nccc(-c3c(-c4ccc(F)c(Cl)c4)nn4cc(C(F)(F)F)ccc34)n2)CC1` returned an IC50 in assay [1] of 10 to 100 nM.

The compound `Fc1ccc(-c2nn3ccccc3c2-c2ccncc2)cc1` yielded an inhibition in assay [2] of 65%. In addition, the IC50 in assay [1] is < 500 nM; in assay [3], > 50000 nM.

In turn, `CCCN(CCC)CCNc1nccc(-c2c(-c3ccc(F)c(Cl)c3)nn3cc(C(F)(F)F)ccc23)n1` came in with an IC50 in assay [1] of 100 to 1000 nM.

`CCCN1CCN(CCNc2nccc(-c3c(-c4ccc(C(F)(F)F)cc4)nn4cc(C(F)(F)F)ccc34)n2)CC1` returned an IC50 in assay [1] of 1000 to 10000 nM.

As to `Fc1ccc(-c2nn3ccccc3c2-c2ccncn2)cc1`, the inhibition in assay [2] turned out to be 67%. In addition, the IC50 in assay [1] was 500 to 5000 nM; in assay [3], > 50000 nM.

In turn, `CSc1nccc(-c2c(-c3ccc(F)cc3)nn3ccccc23)n1` returned an inhibition in assay [2] of 56%. Besides, the half-inhibitory concentration (IC50) in assay [1] was < 500 nM.

Regarding `OCCCNc1cc(-c2c(-c3ccc(F)cc3)nn3ccccc23)ccn1`, the inhibition in assay [2] turned out to be 45%. Also, the IC50 was < 500 nM in assay [1] and > 50000 nM in assay [3].

`CCCCNc1nccc(-c2c(-c3ccc(F)cc3)nn3ccccc23)n1` gave an inhibition in assay [2] of 88%. Moreover, the IC50 in assay [1] was < 500 nM.

Regarding `Fc1ccc(-c2nn3cc(C(F)(F)F)ccc3c2-c2ccnc(NCCN3CCCCC3)n2)cc1Cl`, the half-maximal inhibitory concentration (IC50) in assay [1] lay in the range of 100 to 1000 nM.

`Fc1ccc(-c2nn3cc(C(F)(F)F)ccc3c2-c2ccnc(NC3CC3)n2)cc1` came in with an inhibition in assay [2] of 24%. Moreover, in assay [1], the IC50 is < 500 nM.

Regarding `OCc1ccn2nc(-c3ccc(F)cc3)c(-c3ccncc3)c2c1`, the IC50 in assay [1] is < 500 nM.

`CCCN1CCN(CCNc2nccc(-c3c(-c4cccc(Cl)c4)nn4cc(C(F)(F)F)ccc34)n2)CC1` came in with an IC50 in assay [1] of 10 to 100 nM.

In the case of `Cc1ccc(C)c(Oc2nccc(-c3c(-c4ccc(F)cc4)nn4cc(C(F)(F)F)ccc34)n2)c1`, in assay [1], the IC50 is < 500 nM.

`Fc1ccc(-c2nn3cc(C(F)(F)F)ccc3c2-c2ccnc(NCCCN3CCCCC3)n2)cc1Cl`: the IC50 in assay [1] lay in the range of 100 to 1000 nM.

Consider `CC(C)Nc1nccc(-c2c(-c3ccc(F)cc3)nn3cc(C(F)(F)F)ccc23)n1`, for which the inhibition in assay [2] worked out at 45%. Besides, the IC50 in assay [1] is < 500 nM.

For the compound `Fc1ccc(-c2nn3cc(C(F)(F)F)ccc3c2-c2ccnc(Oc3ccccc3)n2)cc1`, the IC50 in assay [1] is < 500 nM.

For the compound `FC(F)(F)c1ccc(-c2nn3cc(C(F)(F)F)ccc3c2-c2ccnc(NCCN3CCOCC3)n2)cc1`, the IC50 in assay [1] was 1000 to 10000 nM.

Consider `FC(F)(F)c1ccc(-c2nn3cc(C(F)(F)F)ccc3c2-c2ccnc(NCCN3CCCC3)n2)cc1`, for which the IC50 in assay [1] is 1000 to 10000 nM.

Compound `FC(F)(F)c1ccc2c(-c3ccnc(NCCN4CCCCCC4)n3)c(-c3cccc(Cl)c3)nn2c1` had an IC50 in assay [1] of 100 to 1000 nM.

Regarding `CCN(CC)CCNc1nccc(-c2c(-c3ccc(C(F)(F)F)cc3)nn3cc(C(F)(F)F)ccc23)n1`, the IC50 in assay [1] lay within 1000 to 10000 nM.

`Fc1ccc(-c2nn3ccccc3c2-c2ccnc(NCc3ccccn3)n2)cc1`: the inhibition in assay [2] stood at 87%. Besides, the IC50 in assay [1] is < 500 nM.

For the compound `CN(C)CCCNc1nccc(-c2c(-c3ccc(F)c(Cl)c3)nn3cc(C(F)(F)F)ccc23)n1`, the IC50 in assay [1] lay within 10 to 100 nM.

The compound `Fc1ccc(-c2nn3ccccc3c2-c2ccnc(NCc3ccc(Cl)cc3)c2)cc1` had an inhibition in assay [2] of 42%. Further, the IC50 in assay [1] and in assay [4] was < 500 nM each time.

For the compound `OCCCNc1nccc(-c2c(-c3ccc(F)cc3)nn3cc(C(F)(F)F)ccc23)n1`, in assay [1], the IC50 was < 500 nM.

In assay [1], `FC(F)(F)c1ccc(-c2nn3cc(C(F)(F)F)ccc3c2-c2ccnc(NCCCN3CCOCC3)n2)cc1` came in with an IC50 of 1000 to 10000 nM.

As for `Fc1ccc(-c2nn3ccccc3c2-c2ccnc(NCCc3cnc[nH]3)n2)cc1`, the IC50 in assay [1] is < 500 nM.

For the compound `Fc1ccc(-c2nn3ccccc3c2-c2ccnc(NC3CC3)n2)cc1`, the half-inhibitory concentration (IC50) in assay [1] is < 500 nM.

For `CCN(CC)CCNc1nccc(-c2c(-c3cccc(Cl)c3)nn3cc(C(F)(F)F)ccc23)n1`, in assay [1], the IC50 lay in the range of 100 to 1000 nM.

`CC(C)N(CCNc1nccc(-c2c(-c3ccc(F)c(Cl)c3)nn3cc(C(F)(F)F)ccc23)n1)C(C)C` gave an IC50 in assay [1] of 100 to 1000 nM.

On to `NC(=O)c1ccc2c(-c3ccnc(NCCCO)n3)c(-c3ccc(F)cc3)nn2c1`, for which the IC50 in assay [1] was < 500 nM.

As for `NC(=O)c1ccc2c(-c3ccnc(NCCCN4CCCCC4)n3)c(-c3ccc(F)cc3)nn2c1`, in assay [1], the IC50 was < 500 nM.

For the compound `COc1ccn2nc(-c3ccc(F)cc3)c(-c3ccncc3)c2c1`, in assay [2], the inhibition worked out at 11%. In assay [1], this compound displayed an IC50 of 500 to 5000 nM.

`Fc1ccc(-c2nn3cc(C(F)(F)F)ccc3c2-c2ccncc2)cc1`: in assay [1], the IC50 is < 500 nM.

In the case of `CN(C)CCCNc1nccc(-c2c(-c3ccc(C(F)(F)F)cc3)nn3cc(C(F)(F)F)ccc23)n1`, the IC50 in assay [1] was in the range of 1000 to 10000 nM.

The compound `FC(F)(F)c1ccc2c(-c3ccnc(NCCN4CCCCC4)n3)c(-c3cccc(Cl)c3)nn2c1` gave an IC50 in assay [1] of 100 to 1000 nM.

Take `CN(C)CCCNc1nccc(-c2c(-c3ccc(F)cc3)nn3cc(C(F)(F)F)ccc23)n1`: the IC50 in assay [1] fell in the range of 100 to 1000 nM.

In assay [1], `FC(F)(F)c1ccc2c(-c3ccnc(NCCN4CCCC4)n3)c(-c3cccc(Cl)c3)nn2c1` returned an IC50 of 100 to 1000 nM.

As to `NC(=O)c1ccc2c(-c3ccnc(NC4CC4)n3)c(-c3ccc(F)cc3)nn2c1`, the inhibition in assay [2] is 90%. The IC50 in assay [1] and in assay [4] was < 500 nM throughout.

`Fc1ccc(-c2nn3cc(C(F)(F)F)ccc3c2-c2ccnc(NCCN3CCCC3)n2)cc1Cl` gave an IC50 in assay [1] of 100 to 1000 nM.

`Fc1ccc(-c2nn3cc(C(F)(F)F)ccc3c2-c2ccnc(NCCN3CCCCCC3)n2)cc1Cl`: the concentration for half-maximal inhibition (IC50) in assay [1] fell in the range of 100 to 1000 nM.

Turning to `Nc1nccc(-c2c(-c3ccc(F)cc3)nn3ccccc23)n1`, the inhibition in assay [2] was 62%. Besides, the IC50 in assay [1] is < 500 nM.

Regarding `Fc1ccc(-c2nn3cc(C(F)(F)F)ccc3c2-c2ccnc(NCCN3CCOCC3)n2)cc1Cl`, the concentration for half-maximal inhibition (IC50) in assay [1] fell in the range of 10 to 100 nM.

As to `Nc1ncccc1C(=O)OCc1ccn2nc(-c3ccc(F)cc3)c(-c3ccncc3)c2c1`, the IC50 in assay [1] is < 500 nM; in assay [3] it was > 50000 nM.

On to `Fc1ccc(-c2nn3ccccc3c2-c2ccnc(NCc3cccnc3)c2)cc1`, for which the IC50 in assay [1] is < 500 nM; in assay [3], 5000 to 50000 nM.

As to `FC(F)(F)c1ccc2c(-c3ccnc(NCCCCN4CCCC4)n3)c(-c3cccc(Cl)c3)nn2c1`, in assay [1], the IC50 lay within 10 to 100 nM.
